Patent publication US9809557B2 (priority 2011, dated 2017)
≈ marks a conversion by molar mass, not a printed value. Where “and” joins values, the source holds several entries; their conditions need not be identical. Equal entries are not always repeated.

Tests used:
[1] = Solubility at acidic pH, with and without DMA cosolvent; type: physicochemical
Description: A suspension of DPX-2-0007 (as hydrochloride salt) was formed by adding 30 mg to 4 mL demineralized water. After rotation of the suspension at 37° C. for 3 days, 1.0 mL sample was taken and after filtration (disposable syringe filters), the solution was diluted in methanol:water 1:1 and analyzed immediately by HPLC for prodrug. […] The pH in the solution was measured to 3.40. The following HPLC method was used: Merck Hitachi L 6200 pump connected to Merck Hitachi 4250 UV detector. Reversed phase chromatography was performed using a RP 18 Symmetry Shields® column (150×4.6 mm, 5 μm particles) equipped with a SecurityGuard precolumn (Phenomenex, Torrance, Calif., USA). […] The retention time of naproxen and DPX-2-0007 were 19 and 5.8 min, respectively.
A suspension of DPX-2-0006 was formed by adding 10 mg to 3 mL demineralized water, 0.05 mL 0.100 M HCl was added to obtain a pH of 3. After rotation of the suspension at 37° C. for 1 days, 0.5 mL sample was taken and after filtration (disposable syringe filters), the solution was diluted in methanol:water 1:1 and analyzed immediately by HPLC for prodrug. […] The HPLC method described in Example 29 was applied and the retention time of DPX-2-0006 was 14 min, respectively. N,N-dimethylacetamide (DMA) was added stepwise to the acidic suspension of DPX-2-0006 and the amount of DPX-2-000 dissolved in the presence of various volumes of DMA was determined after 1-3 days rotation at 37° C. as described above.

[2] = Stability (cleavage to parent drug) of prodrug suspensions in PBS pH 7.4; type: physicochemical; conditions: for half-life at 0.5 mg/mL: 67 mM phosphate buffer (PBS), PBS pH 7.4, 37° C., read-out: t1/2 in PBS (converted); for apparent pseudo-zero-order rate constant k0: appearance of parent drug in PBS pH 7.4 suspension, 37° C.; for estimated pseudo first-order rate constant khyd: cleavage of prodrug in PBS pH 7.4, 37° C., calculated from k0 and Sprodrug
Description: Suspensions of the prodrugs in 67 mM phosphate buffer pH 7.4 (PBS) were prepared by adding 10 mL PBS to approximately 5 mg prodrug. The suspensions were kept unstirred at 37° C. in an incubator hood. At appropriate time intervals over 23 days, about 500 μL samples were taken and after filtration (disposable syringe filters), the solutions were analyzed immediately by HPLC for parent drug and remaining prodrug. Quantitation of parent drug and prodrug was done from peak area measurements in relations to those of standards analysed by HPLC at the same conditions.
From the observed relatively stable concentration of dissolved prodrugs measured in the suspensions after 8-9 day up to 23 days, the solubilities of the prodrugs (Sprodrug) were determined. In this time interval, the rate of appearance of parent drug was determined and an apparent pseudo-zero-order rate constant (k0) was obtained. By assuming that the dissolution rates were much faster than the conversion of the prodrugs to the parent drug, pseudo first-order rate constants (khyd) for cleavage of the prodrugs were calculated according to:

[3] = Hydrolysis of the prodrugs in 80% human plasma; type: in vitro ADME; conditions: hydrolysis in 80% human plasma at 37° C.; read-out: t1/2 in plasma
Description: At 37±0.5° C., the hydrolysis rate of the prodrugs was measured in 80% human plasma. An appropriate aliquot (20-100 μL) of 1 mg/ml prodrug solution in methanol was transferred to 5.0 ml of preheated plasma. At appropriate time intervals, 300 μl sample aliquots were withdrawn and transferred to 600 μl acetonitrile and mixed thoroughly. After centrifugation at 13500 rpm for 5 min, the supernatant was analyzed by HPLC for parent drug and remaining prodrug.

[4] = Solubility of the prodrugs in PBS (67 mM phosphate buffer pH 7.4); conditions: for Sprodrug ± SD: PBS (67 mM phosphate buffer pH 7.4), 37° C.; for solubility: 67 mM phosphate buffer (PBS); for solubility / solubility thermodynamic: pH 7.4, aqueous buffer, thermodynamic from solid; for solubility thermodynamic: 67 mM phosphate buffer pH 7.4 (PBS), 37 °C
Description: The determination of the solubility of a prodrug at different pH values of interest according to the present invention is carried by adding excess solid prodrug to a container containing a buffer solution with well-defined pH. The mixture is rotated at constant temperature until an equilibrium between solid prodrug and prodrug in solution has established (that is until the prodrug concentration in the supernatant remains constant). At each measurement the pH of the supernatant is controlled and, if needed, adjusted to the desired pH.
Suspensions of the prodrugs in 67 mM phosphate buffer pH 7.4 (PBS) were prepared by adding 10 mL PBS to approximately 5 mg prodrug. The suspensions were kept unstirred at 37° C. in an incubator hood. At appropriate time intervals over 23 days, about 500 μL samples were taken and after filtration (disposable syringe filters), the solutions were analyzed immediately by HPLC for parent drug and remaining prodrug. Quantitation of parent drug and prodrug was done from peak area measurements in relations to those of standards analysed by HPLC at the same conditions. […] For the diclofenac and ibuprofen prodrugs, the following method was used: Merck Hitachi L 6000 pump connected to Merck Hitachi 4250 UV detector. Reversed phase chromatography was performed using a C18 Gemini® RP column (150×4.6 mm, 5 μm particles) (Phenomenex, Torrance, Calif., USA) equipped with a SecurityGuard precolumn (Phenomenex, Torrance, Calif., USA). The flow rate was set at 1 mL/min and the column effluent was monitored at 230 nm. The mobile phase consisted of 35% (v/v) acetonitrile and 65% (v/v) of 0.1% (v/v) phosphoric acid pH 3.2. The retention times varied in the range of 3 to 30 min.
From the observed relatively stable concentration of dissolved prodrugs measured in the suspensions after 8-9 day up to 23 days, the solubilities of the prodrugs (Sprodrug) were determined.

[5] = Precipitation on addition of acidic prodrug solution to phosphate buffer pH 7.4; type: physicochemical
Description: At appropriate time intervals, samples were withdrawn and centrifuged for 5 min at 13,000 rpm and the supernatant was analysed by HPLC for DPX-4-0001 and formed ketorolac. The HPLC method described in Example 26 was applied. […] A slight increase in the ketorolac concentration is the result of pH dependent hydrolysis of the prodrug bond (FIG. 3).
The pH in the suspension was measured to 7.0.

[6] = Stability of a suspension of prodrug in 80% human synovial fluid pH 7.4, formation of ketorolac; type: in vitro ADME; conditions: after 21 hours
Description: (§1) The stability of a suspension of DPX-4-0001 in 80% human synovial fluid pH 7.4 (SF) from arthritis patients was investigated at 37° C. The reaction was initiated by adding 5 ml preheated SF to 2 mg DPX-4-0001. At appropriate time intervals, 400 μl samples were taken and centrifuged for 5 min at 13.000 rpm and 200 μl of the supernatant was deproteinised with 400 μl acetonitrile. After centrifugation for 4 min at 13000 rpm, the supernatant was analysed by HPLC for DPX-4-0001 as well as formed ketorolac. The HPLC method described in Example 26 was applied.

pKa value = type: physicochemical
[7] = Stability of a suspension of DPX-4-0001 in 67 mM phosphate buffer pH 7.4 (comparison to SF); type: physicochemical; conditions: suspension in 67 mM phosphate buffer pH 7.4, 37° C.
Description: as §1
For comparison, the stability of a suspension of DPX-4-0001 in 67 mM phosphate buffer pH 7.4 was investigated by the same procedure at 37° C. […] Since the synovial disappearance half-lives of small-molecule drugs are in the range 2-5 h, the concentration of the active agent in the joint space is determined by the prodrug properties (i) solubility, (ii) degree of protein binding, and (iii) rate of cleavage of the prodrug bond, as well as (iv) the administered dose.

COc1ccc2cc(C(C)C(=O)OCCn3cnc4ccccc43)ccc2c1 (centres unmarked) [DPX-2-0006, 2-(1H-benzo[d]imidazol-1-yl)ethyl 2-(6-methoxynaphthalen-2-yl)propanoate]
solubility at 1 day ([1]; demineralized water acidified with HCl, 37 °C, pH 2.9, aqueous buffer, thermodynamic from solid, pH 2.9, 37° C., no DMA): 180 µg/mL (≈ 481 µM)
half-life at 0.5 mg/mL [2]: 264 h
apparent pseudo-zero-order rate constant k0 [2]: 1e-06 M/day
estimated pseudo first-order rate constant khyd [2]: 0.066 day⁻¹
half-life [3]: 8.52 h
Sprodrug ± SD [4]: 5 ± 1 μg/mL and 0.015 ± 0.002 mM

COc1ccc2cc(C(C)C(=O)OCCn3ccnc3-c3ccccc3)ccc2c1 (centres unmarked) [DPX-2-0007, 2-(2-phenyl-1H-imidazol-1-yl)ethyl 2-(6-methoxynaphthalen-2-yl)propanoate]
solubility at 3 days ([1]; demineralized water, 37 °C, pH 3.4, water, thermodynamic from solid, pH 3.4, hydrochloride salt in demineralized water, 3 days): 6800 µg/mL
fold increase in solubility at pH 3.4 compared to buffer pH 7.4 (PBS) ([1]; pH 3.4 vs pH 7.4): 1000 fold
half-life at 0.5 mg/mL [2]: 264 h
apparent pseudo-zero-order rate constant k0 [2]: 1e-06 M/day
estimated pseudo first-order rate constant khyd [2]: 0.065 day⁻¹
half-life [3]: 1.03 h
precipitation after addition to buffer ([5]; 1.0 mL aqueous solution pH 3.4 added to 1.0 mL 67 mM phosphate buffer pH 7.4): a precipitation was immediately observed
solubility [4]: 7 µg/mL (≈ 17.5 µM)
solubility thermodynamic [4]: 16 ± 1 µM (≈ 6.41 µg/mL)
Sprodrug ± SD [4]: 7 ± 1 µg/mL

CN(C)c1ccc(CCOC(=O)C2CCn3c(C(=O)c4ccccc4)ccc32)cc1 (centres unmarked) [DPX-4-0001, 4-(dimethylamino)phenethyl 5-benzoyl-2,3-dihydro-1H-pyrrolizine-1-carboxylate]
solubility ([1]; buffer solution, pH 2.02, aqueous buffer, thermodynamic from solid, pH 2.02, hydrochloride salt): 65 µg/mL
fold decrease in solubility from pH 2.02 to pH 7.4 ([1]; pH 2.02 vs pH 7.4): 1300 fold
concentration of dissolved prodrug in SF ([6]; 80% human synovial fluid pH 7.4, 37° C.): about 2.2×10^−5 M
conversion of the added amount of prodrug ([6]; 80% human synovial fluid, 37° C.): 28%
pKa (pKa value): ~5.2
dissolved prodrug concentration after initial precipitation phase ([5]; 67 mM phosphate buffer pH 7.4, over 25 h): low and fairly constant concentration
precipitation after addition to buffer ([5]; 300 μl of solution in 0.01 M HCl added to 5 ml 67 mM phosphate buffer pH 7.4, no esterases): a precipitation process was observed
degradation of prodrug (to ketorolac) in phosphate buffer [7]: no significant degradation
final prodrug concentration in phosphate buffer [7]: about 8×10^−7 M
solubility [4]: ~0.05 µg/mL (≈ 0.124 µM)
solubility thermodynamic [4]: 0.1 ± 0.1 µM (≈ 0.0402 µg/mL)
Sprodrug ± SD [4]: 0.05 ± 0.03 µg/mL

CN(C)c1ccc(CCO)cc1 [IPU 1, 4-(hydroxyethyl)-N,N-dimethylaniline]
pKa (pKa value): ~5.2
